Results published in patent publication EP1721601A1, “Use of taurine for enhancing lipid synthesis in the epidermis” (Henkel Kommanditgesellschaft auf Aktien, priority 2005, dated 2006).
Entries after “also recorded” stand apart in the source; their conditions may differ.

Key:
[1] = system: epidermale Barrierefunktion; assay: Epidermal barrier function (TEWL) after repetitive SDS damage in vivo
Excerpt: Anschließend wurden Öl-in-Wasser-Emulsionen mit 1,5 Gew.-% Behenylalkohol und 2,75 Gew.-% Arachidylalkohol (VAR1: 0 Gew.-% Taurin; VAR2: 1 Gew.-% Taurin) appliziert, oder die Haut verblieb unbehandelt (VAR3). Diese Behandlung wurde zweimal täglich an 5 Tagen durchgeführt. Der transepidermale Wasserverlust (TEWL) wurde jeweils vor der SDS-Schädigung mit einem […] (Courage & Khazaka, Köln, Germany) bestimmt. Die Daten wurden auf die t0-Werte normiert und ein dimensionsloser Wert "area under the curve" errechnet (siehe Tabelle 1). Die statistische Analyse der Daten basiert auf dem gepaarten Wilcoxon-Test. Die Daten repräsentieren die Mittelwerte (n=18). Tab. 2: Einfluss von Taurin auf Irritationsmarker in vitro

[2] = system: Interleukin 1-alpha (IL-1alpha); assay: Irritation markers in vitro: IL-1alpha release of SDS-damaged epidermis models; assay type: cell-based; conditions: for IL-1alpha-Freisetzung: 1 h 0,18% SDS, rinsed, then 24 h topical emulsion (C: 0.1 Gew.-% Triamcinolonacetonid; E: 1 Gew.-% Taurin; B: no further treatment), mean +/- SEM, n=3, unbehandelt 15, Vehikel 387
Procedure: (§1) Anschließend wurden die Epidermismodelle abgespült und für weitere 24h unter topischer Applikation folgender Emulsionen inkubiert: C: Kortikoid-ratiopharm® Creme (0.1 Gew.-% Triamcinolonacetonid); D: 1,5 Gew.-% Behenylalkohol + 2,75 Gew.-% Arachidylalkohol; E: 1,5 Gew.-% Behenylalkohol + 2,75 Gew.-% Arachidylalkohol +1 Gew.-% Taurin. […] Die Daten repräsentieren die Mittelwerte +/-SEM (n=3).

Epidermismodelle [3] = assay: Irritation markers in vitro: viability and LDH release of SDS-damaged epidermis models; assay type: cell-based; conditions: for LDH-Freisetzung / Vitalität: 1 h 0,18% SDS, rinsed, then 24 h topical emulsion (C: 0.1 Gew.-% Triamcinolonacetonid; E: 1 Gew.-% Taurin; B: no further treatment), mean +/- SEM, n=3; for LDH-Freisetzung: unbehandelt 0,22, Vehikel 1,95; for Vitalität: unbehandelt 100, Vehikel 66
Procedure: as §1

Epidermismodelle [4] = assay: Epidermal synthesis of barrier lipids in epidermis models; assay type: cell-based
Procedure: Epidermismodelle wurden 12 Tage lang kultiviert. Nach 12 Tagen (t = 0) wurden die individuell entwickelten sogenannten Barrierelipide (Ceramide, Cholesterol, Fettsäuren, Cholesterolsulfate und Cholesterolester) quantifiziert. Anschließend wurde ein Teil der Epidermismodelle 5 Tage lang ohne Zusatz von Taurin weiterkultiviert. Ein anderer Teil der Epidermismodelle wurde 5 Tage lang […] Zusatz von 0,3 mM Taurin weiterkultiviert. Nach insgesamt 17 Tagen Kultivierungsdauer (t = 5) wurden erneut die Barrierelipide quantifiziert. […] Die in Tab. 3 gezeigten Unterschiede zu t = 5 waren statistisch signifikant (p<0,05). Tabelle 3: Einfluss von Taurin auf die epidermale Synthese von Barrierelipiden (Angaben der Menge an Barrierelipiden in Gew.-%, bezogen auf den Gesamtlipidgehalt der Epidermismodelle, Mittelwerte aus n = 4 Messungen (± Standardabweichung))

Prostaglandin E2 (PGE2) = assay: Irritation markers in vitro: PGE2 release of SDS-damaged epidermis models; assay type: cell-based; conditions: for PGE2-Freisetzung: 1 h 0,18% SDS, rinsed, then 24 h topical emulsion (C: 0.1 Gew.-% Triamcinolonacetonid; E: 1 Gew.-% Taurin; B: no further treatment), mean +/- SEM, n=3, unbehandelt 0,84, Vehikel 1,40
Procedure: as §1

[5] = incubation of skin models with Taurin, result in words

`NCCS(=O)(=O)O` [Taurin, 2-Aminoethansulfonsäure] was tested, and the “TEWL "area under the curve", Mittelwert in % (Unbehandelt = 100 %)” value ([1]; O/W emulsion with 1 Gew.-% Taurin after occlusive 0.75% SDS, twice daily on 5 days, n=18, Vehikel 62,5 %) was 30,3%, the “transepidermaler Wasserverlust (TEWL), "area under the curve", Mittelwert” value ([1]; O/W emulsion with 1 Gew.-% Taurin after occlusive 0.75% SDS, twice daily on 5 days, normalised to t0, n=18) was 881932 arbitrary units and the “Regeneration der Hautbarrierefunktion nach SDS-Schädigung” value ([1]; application of Taurin, result in words) was “signifikant beschleunigt”. For the same compound, the “transepidermaler Wasserverlust (TEWL)” value ([1]; topical application of Taurin after repeated SDS treatment of the skin, result in words) was “senkte den TEWL in signifikantem Ausmaß”, the IL-1alpha-Freisetzung [2] was 288 ± 37 pg/mL and the “Ausschüttung von Interleukin-1-alpha” value [2, 5] was “nahm die Ausschüttung von Interleukin-1-alpha und von Prostaglandin-E2 ab”. For the same compound, the LDH-Freisetzung (Epidermismodelle [3]) was 1,30 +/- 0,15 OD 492nm, the Vitalität (Epidermismodelle [3]) was 82 +/- 2% and the “Integrität der Keratinozytenmembran” value (Epidermismodelle [3]; [5]) was “stabilisierte sich”. For the same compound, the “Vitalität der Keratinozyten” value (Epidermismodelle [3]; [5]) was “verbesserte sich”, the Cholesterolsulfat (Epidermismodelle [4]; 0,3 mM Taurin for 5 days (t = 5, 17 days culture), % of total lipid content, mean of n = 4 (± SD), without Taurin 0,6) was 1,0 (± 0,2) Gew.-% and the Cholesterol-ester (Epidermismodelle [4]; 0,3 mM Taurin for 5 days (t = 5, 17 days culture), % of total lipid content, mean of n = 4 (± SD), without Taurin 0,9) was 1,6 (± 0,2) Gew.-%. The Fettsäuren (Epidermismodelle [4]; 0,3 mM Taurin for 5 days (t = 5, 17 days culture), % of total lipid content, mean of n = 4 (± SD), without Taurin 3,5) was 5,7 (± 1,5) Gew.-%, the Ceramide (Epidermismodelle [4]; 0,3 mM Taurin for 5 days (t = 5, 17 days culture), % of total lipid content, mean of n = 4 (± SD), without Taurin 7,1) was 11.7 (± 1,6) Gew.-% and the Cholesterol (Epidermismodelle [4]; 0,3 mM Taurin for 5 days (t = 5, 17 days culture), % of total lipid content, mean of n = 4 (± SD), without Taurin 9,9) was 11,0 (± 1,2) Gew.-%. The “Spiegel an Ceramiden, Cholesterol und freien Fettsäuren” value (Epidermismodelle [4]; skin models with Taurin, result in words) was “in gleichem Ausmaß”, the “epidermale Synthese von Barrierelipiden” value (Epidermismodelle [4]; skin/epidermis models with Taurin, result in words, differences at t = 5 significant (p<0,05)) was “in signifikantem Ausmaß die Synthese aller drei Klassen von Barrierelipiden; also recorded: Steigerung der epidermalen Synthese von Barrierelipiden” and the PGE2-Freisetzung (Prostaglandin E2 (PGE2)) was 0,83 +/- 0,05 ng/ml. For the same compound, the “Ausschüttung von Prostaglandin-E2” value (Prostaglandin E2 (PGE2); [5]) was “nahm die Ausschüttung von Interleukin-1-alpha und von Prostaglandin-E2 ab”.

`CC1(C)O[C@@H]2C[C@H]3[C@@H]4CCC5=CC(=O)C=C[C@]5(C)[C@@]4(F)[C@@H](O)C[C@]3(C)[C@]2(C(=O)CO)O1` [Triamcinolonacetonid, reference compound] was tested, and the IL-1alpha-Freisetzung [2] was 292 ± 26 pg/mL, the LDH-Freisetzung (Epidermismodelle [3]) was 1,19 +/- 0,16 OD 492nm and the Vitalität (Epidermismodelle [3]) was 86 +/- 8%. For the same compound, the PGE2-Freisetzung (Prostaglandin E2 (PGE2)) was 0,30 +/- 0,05 ng/ml.
